The record followed here is US11358936B2, “Lysyl oxidase-like 2 inhibitors and uses thereof” (PharmAkea, Inc., priority 2015, dated 2022).

The target of the assay is human LOXL2 (Homo sapiens (Human), UniProt Q9Y4K0). Put plainly: Human LOXL2 Amine Oxidase Activity Assay (Amplex Red fluorescence). Type of assay: biochemical. The note with it: concentrated conditioned media from CHO cells stably expressing human LOXL2; 2 h at 37° C. preincubation; DAP substrate; read-out: IC50. On the procedure:
LOXL2 amine oxidase activity is evaluated by measuring Amplex Red fluorescence using 10-20× concentrated conditioned media from CHO cells stably expressing human LOXL2. To assay for amine oxidase activity, 10 μL of the concentrated conditioned media is incubated with 2 μL of test compound in DMSO and 73 μL Assay Buffer (50 mM Borate Buffer, pH8) for 2 h at 37° C. After the 2 h incubation, 5 μl of 10 mM 1,5-Diaminopentane (DAP) diluted in Assay Buffer and 10 μl of Amplex Red Mix (8.5 μl Assay Buffer+0.5 μl of 10 mM Amplex Red+1 μl of 500 U/ml Horseradish Peroxidase) are added and the plate mixed and immediately placed on the FlexStaion for fluorescence measurements. Fluorescence is read in kinetic mode every 2 min for 1 hour at excitation=544 and emission=590. The amine oxidase activity is calculated from the slope of the linear portion of the curve.

The term IC50 denotes the concentration needed to halve the response being measured.

Structures can show the parent of a compound that is named as a salt. Where only a bound is given, the exact number is not on record here.

human LOXL2, sequence (Q9Y4K0 26-774): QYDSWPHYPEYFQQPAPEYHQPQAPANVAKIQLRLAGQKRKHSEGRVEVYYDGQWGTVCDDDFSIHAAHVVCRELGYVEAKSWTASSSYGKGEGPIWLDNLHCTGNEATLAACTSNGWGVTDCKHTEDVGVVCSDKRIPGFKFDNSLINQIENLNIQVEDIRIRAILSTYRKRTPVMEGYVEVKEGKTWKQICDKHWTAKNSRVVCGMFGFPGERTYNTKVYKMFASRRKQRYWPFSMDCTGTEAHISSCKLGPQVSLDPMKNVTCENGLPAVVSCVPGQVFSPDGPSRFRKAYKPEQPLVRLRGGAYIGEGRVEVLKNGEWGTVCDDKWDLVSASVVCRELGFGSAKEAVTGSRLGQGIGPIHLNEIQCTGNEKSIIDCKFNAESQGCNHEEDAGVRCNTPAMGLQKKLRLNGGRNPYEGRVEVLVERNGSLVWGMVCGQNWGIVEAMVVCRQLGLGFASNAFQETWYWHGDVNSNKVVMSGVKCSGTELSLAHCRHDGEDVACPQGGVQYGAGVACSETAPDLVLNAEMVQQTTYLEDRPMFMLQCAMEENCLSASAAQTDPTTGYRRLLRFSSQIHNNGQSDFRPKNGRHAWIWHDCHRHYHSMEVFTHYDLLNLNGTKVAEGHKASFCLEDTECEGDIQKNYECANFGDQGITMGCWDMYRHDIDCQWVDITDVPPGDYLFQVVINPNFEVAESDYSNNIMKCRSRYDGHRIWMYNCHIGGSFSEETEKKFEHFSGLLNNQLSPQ

Take `NCc1ccnc(-c2ccc(C(=O)N3CCC(O)(C(F)(F)F)C3)cc2)c1` (racemic) [Compound 1-2, Racemic-(4-(4-(aminomethyl)pyridin-2-yl)phenyl)(3-hydroxy-3-(trifluoromethyl)pyrrolidin-1-yl)methanone hydrochloride]: the IC50 is below 300 nM. Then `NCc1ccnc(-c2cccc(C(=O)N3CCC(O)(C(F)(F)F)C3)c2)c1` (racemic) [Compound 1-6, Racemic-(3-(4-(aminomethyl)pyridin-2-yl)phenyl)(3-hydroxy-3-(trifluoromethyl)pyrrolidin-1-yl)methanone hydrochloride], with below 300 nM. The value for `NCc1ccnc(Oc2ccc(C(=O)N3CCC(O)(C(F)(F)F)C3)cc2)c1` (racemic) [Compound 1-12, Racemic-4-((4-aminomethyl)pyridin-2-yl)oxy)phenyl)(3-hydroxy-3-(trifluoromethyl)pyrrolidin-1-yl)methanone hydrochloride] was below 300 nM; that for `NCc1ccnc(Oc2cccc(C(=O)N3CCC(O)(C(F)(F)F)C3)c2)c1` (racemic) [Compound 1-16, Racemic-(3-((4-(aminomethyl)pyridin-2-yl)oxy)phenyl)(3-hydroxy-3-(trifluoromethyl)pyrrolidin-1-yl)methanone hydrochloride] was below 300 nM; that for `NCc1ccnc(N2C[C@@H](O)[C@H](F)C2)c1` (racemic) [Compound 2-1] was above 1000 nM.

In the case of `NCc1ccnc(N2CCC(O)(C(F)(F)F)C2)c1` (racemic) [Compound 2-2, Racemic-1-(4-(Aminomethyl)pyridin-2-yl)-3-(trifluoromethyl)pyrrolidin-3-ol], the half-inhibitory concentration (IC50) was above 1000 nM. Then `NCc1ccnc(C(=O)N2CCC(O)(C(F)(F)F)C2)c1` (racemic) [Compound 2-40, Racemic-(4-(aminomethyl)pyridin-2-yl)(3-hydroxy-3-(trifluoromethyl)pyrrolidin-1-yl)methanone hydrochloride], with below 300 nM. Then `NCc1ccnc(Oc2cccc3c2ccn3CC(=O)N2CCCC(O)(C(F)(F)F)C2)c1` (single isomer, unassigned) [Compound 2-28, (R) or (S)-2-(4-((4-(Aminomethyl)pyridin-2-yl)oxy)-1H-indol-1-yl)-1-(3-hydroxy-3-(trifluoromethyl)piperidin-1-yl)ethan-1-one hydrochloride], with below 300 nM.

Turning to `NCc1ccnc(Oc2cccc3c2ccn3CC(=O)N2CCCC(O)(C(F)(F)F)C2)c1` (single isomer, unassigned) [Compound 2-29, (R) or (S)-2-(4-((4-(aminomethyl)pyridin-2-yl)oxy)-1H-indol-1-yl)-1-(3-hydroxy-3-(trifluoromethyl)piperidin-1-yl)ethan-1-one hydrochloride], the IC50 fell in the range of 300 to 1000 nM. Then `COCCNC(=O)c1ccc(-c2cc(CN)ccn2)cc1` [Compound 1-1, 4-(4-(Aminomethyl)pyridin-2-yl)-N-(2-methoxyethyl)benzamide hydrochloride], with below 300 nM; and `NCc1ccnc(-c2ccc(C(=O)Nc3ccccc3)cc2)c1` [Compound 1-3, 4-(4-(Aminomethyl)pyridin-2-yl)-N-phenylbenzamide hydrochloride], with below 300 nM. The value for `NCc1ccnc(-c2ccc(C(=O)NCc3ccccc3)cc2)c1` [Compound 1-4, 4-(4-(Aminomethyl)pyridin-2-yl)-N-benzylbenzamide hydrochloride] was below 300 nM. The value for `COCCNC(=O)c1cccc(-c2cc(CN)ccn2)c1` [Compound 1-5, 3-(4-(Aminomethyl)pyridin-2-yl)-N-(2-methoxyethyl)benzamide hydrochloride] was below 300 nM. Take `NCc1ccnc(-c2cccc(C(=O)Nc3ccccc3)c2)c1` [Compound 1-7, 3-(4-(Aminomethyl)pyridin-2-yl)-N-phenylbenzamide hydrochloride]: the half-maximal inhibitory concentration (IC50) was below 300 nM. As to `NCc1ccnc(-c2cccc(C(=O)NCc3ccccc3)c2)c1` [Compound 1-8, 3-(4-(Aminomethyl)pyridin-2-yl)-N-benzylbenzamide hydrochloride], the half-inhibitory concentration (IC50) is below 300 nM.

For the molecule `Cc1ccc(Cl)cc1NC(=O)c1cccc(-c2cc(CN)ccn2)c1` [Compound 1-9, 3-(4-(Aminomethyl)pyridin-2-yl)-N-(5-chloro-2-methylphenyl)benzamide hydrochloride], the IC50 is below 300 nM. The value for `NCc1ccnc(-c2cccc(C(=O)Nc3cc(Cl)cc4[nH]ccc34)c2)c1` [Compound 1-10, 3-(4-(Aminomethyl)pyridin-2-yl)-N-(6-chloro-1H-indol-4-yl)benzamide hydrochloride] was below 300 nM; that for `COCCNC(=O)c1ccc(Oc2cc(CN)ccn2)cc1` [Compound 1-11, 4-((4-(Aminomethyl)pyridin-2-yl)oxy)-N-(2-methoxyethyl)benzamide hydrochloride] was 300 to 1000 nM; that for `NCc1ccnc(Oc2ccc(C(=O)Nc3ccccc3)cc2)c1` [Compound 1-13, 4-((4-(Aminomethyl)pyridin-2-yl)oxy)-N-phenylbenzamide hydrochloride] was below 300 nM. As for `NCc1ccnc(Oc2ccc(C(=O)NCc3ccccc3)cc2)c1` [Compound 1-14, 4-((4-(Aminomethyl)pyridin-2-yl)oxy)-N-benzylbenzamide hydrochloride], the 50% inhibitory concentration (IC50) was below 300 nM.

For `COCCNC(=O)c1cccc(Oc2cc(CN)ccn2)c1` [Compound 1-15, 3-((4-(Aminomethyl)pyridin-2-yl)oxy)-N-(2-methoxyethyl)benzamide hydrochloride], the half-inhibitory concentration (IC50) was below 300 nM. The value for `NCc1ccnc(Oc2cccc(C(=O)Nc3ccccc3)c2)c1` [Compound 1-17, 3-((4-(Aminomethyl)pyridin-2-yl)oxy)-N-phenylbenzamide hydrochloride] was below 300 nM. The value for `NCc1ccnc(Oc2cccc(C(=O)NCc3ccccc3)c2)c1` [Compound 1-18, 3-((4-Aminomethyl)pyridin-2-yl)oxy)-N-benzylbenzamide hydrochloride] was below 300 nM; that for `COc1cccc(NC(=O)c2cccc(Oc3cc(CN)ccn3)c2)c1` [Compound 1-19, 3-((4-(Aminomethyl)pyridin-2-yl)oxy)-N-(3-methoxyphenyl)benzamide hydrochloride] was below 300 nM; that for `COc1ccc(NC(=O)c2cccc(Oc3cc(CN)ccn3)c2)cc1` [Compound 1-20, 3-((4-Aminomethyl)pyridin-2-yl)oxy)-N-(4-methoxyphenyl)benzamide hydrochloride] was below 300 nM. Then `NCc1ccnc(Oc2cccc(C(=O)Nc3cccc(C(F)(F)F)c3)c2)c1` [Compound 1-21, 3-((4-Aminomethyl)pyridin-2-yl)oxy)-N-(3-(trifluoromethyl)phenyl)benzamide hydrochloride], with below 300 nM. `NCc1ccnc(Oc2cccc(C(=O)Nc3ccc(C(F)(F)F)cc3)c2)c1` [Compound 1-22, 3-((4-(Aminomethyl)pyridin-2-yl)oxy)-N-(4-(trifluoromethyl)phenyl)benzamide hydrochloride]: the 50% inhibitory concentration (IC50) was below 300 nM. Then `NCc1ccnc(Oc2cccc(C(=O)Nc3ccc(F)cc3)c2)c1` [Compound 1-23, 3-((4-Aminomethyl)pyridin-2-yl)oxy)-N-(4-fluorophenyl)benzamide hydrochloride], with below 300 nM; and `NCc1ccnc(Oc2cccc(C(=O)Nc3ccc(F)cc3F)c2)c1` [Compound 1-24, 3-((4-Aminomethyl)pyridin-2-yl)oxy)-N-(2,4-difluorophenyl)benzamide hydrochloride], with below 300 nM; and `NCc1ccnc(Oc2cccc(C(=O)Nc3ccc(Br)cc3)c2)c1` [Compound 1-25, 3-((4-(Aminomethyl)pyridin-2-yl)oxy)-N-(4-bromophenyl)benzamide hydrochloride], with below 300 nM. Regarding `COC(=O)c1ccc(NC(=O)c2cccc(Oc3cc(CN)ccn3)c2)cc1` [Compound 1-26, Methyl 4-(3-((4-(amindimethyl)pyridin-2-yl)oxy)benzamido)benzoate hydrochloride], the IC50 was below 300 nM. The value for `CCOC(=O)c1cccc(NC(=O)c2cccc(Oc3cc(CN)ccn3)c2)c1` [Compound 1-27, Ethyl 3-(3-((4-(aminomethyl)pyridin-2-yl)oxy)benzamido)benzoate hydrochloride] was below 300 nM; that for `NCc1ccnc(Oc2cccc(C(=O)Nc3cccc(C(=O)O)c3)c2)c1` [Compound 1-28, 3-(3-((4-(Aminomethyl)pyridin-2-yl)oxy)benzamido)benzoic acid hydrochloride] was below 300 nM; that for `NCc1ccnc(Oc2cccc(C(=O)Nc3ccc(C(=O)O)cc3)c2)c1` [Compound 1-29, 4-(3-((4-(Aminomethyl)pyridin-2-yl)oxy)benzamido)benzoic acid hydrochloride] was below 300 nM. Then `NCc1ccnc(Oc2cccc(C(=O)NCc3ccc(F)cc3F)c2)c1` [Compound 1-30, 3-((4-(Aminomethyl)pyridin-2-yl)oxy)-N-(2,4-difluorobenzyl)benzamide hydrochloride], with below 300 nM; and `NCc1ccnc(Oc2cccc(C(=O)NCc3ccc(C(F)(F)F)cc3)c2)c1` [Compound 1-31, 3-((4-(Aminomethyl)pyridin-2-yl)oxy)-N-(4-(trifluoromethyl)benzyl)benzamide hydrochloride], with below 300 nM; and `NCc1ccnc(Oc2cccc(C(=O)NCc3ccc(Br)cc3)c2)c1` [Compound 1-32, 3-((4-(Aminomethyl)pyridin-2-yl)oxy)-yl)-(4-bromobenzyl)benzamide hydrochloride], with below 300 nM.
